The results in this text go back to patent US11142515B2, “Pyrazolyl-ureas as kinase inhibitors” (RESPIVERT LIMITED, priority 2014, dated 2021).

Test [1] has as its target T1, p38 MAPKα isoform (MAPK14) (Homo sapiens, UniProt Q16539).
T1 construct: purchased Life Technologies
The experiment in a line: p38 MAPKα enzyme inhibition (Z-LYTE FRET). It is filed as biochemical. The settings on record: Table 2B, unit inferred; read-out: p38 MAPKα (Enzyme Profile). The method in brief: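 Activity was measured indirectly as phosphorylation of a MAPKAP-K2-derived FRET peptide. Enzyme (added at 40 ng/mL) was preincubated 2 h at RT with compound (added solutions 40–0.0012 μg/mL).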

The target in test [2] is T2, p38MAPKγ (MAPK12) (Homo sapiens, UniProt P53778).
T2 construct: purchased Life Technologies
T2 sequence (P53778 1-367): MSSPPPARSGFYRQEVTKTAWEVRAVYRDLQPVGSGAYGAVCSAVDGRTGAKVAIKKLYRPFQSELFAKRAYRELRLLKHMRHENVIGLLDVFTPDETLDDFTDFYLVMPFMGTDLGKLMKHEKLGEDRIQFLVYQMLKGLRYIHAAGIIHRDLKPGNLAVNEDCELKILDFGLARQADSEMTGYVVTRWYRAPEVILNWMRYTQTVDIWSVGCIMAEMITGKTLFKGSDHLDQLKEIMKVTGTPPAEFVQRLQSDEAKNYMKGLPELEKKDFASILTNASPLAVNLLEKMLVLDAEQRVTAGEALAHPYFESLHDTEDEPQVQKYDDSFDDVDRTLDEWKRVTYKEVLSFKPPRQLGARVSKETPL
Put plainly: p38 MAPKγ enzyme inhibition (Z-LYTE FRET). The class given is biochemical. As to conditions: Table 2B, unit inferred; read-out: p38 MAPKγ (Enzyme Profile). The method in brief:
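Enzyme (added at 800 ng/mL) was preincubated 2 h at RT with compound (solutions of 40 to 0.0012 μg/mL), then FRET peptide (8 μM) and ATP (400 μM), both as added, were reacted 1 h at RT. Protease development followed for 1 h; phosphorylation was read as the coumarin/fluorescein emission ratio.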

T1 sequence (Q16539 whole entry, canonical isoform): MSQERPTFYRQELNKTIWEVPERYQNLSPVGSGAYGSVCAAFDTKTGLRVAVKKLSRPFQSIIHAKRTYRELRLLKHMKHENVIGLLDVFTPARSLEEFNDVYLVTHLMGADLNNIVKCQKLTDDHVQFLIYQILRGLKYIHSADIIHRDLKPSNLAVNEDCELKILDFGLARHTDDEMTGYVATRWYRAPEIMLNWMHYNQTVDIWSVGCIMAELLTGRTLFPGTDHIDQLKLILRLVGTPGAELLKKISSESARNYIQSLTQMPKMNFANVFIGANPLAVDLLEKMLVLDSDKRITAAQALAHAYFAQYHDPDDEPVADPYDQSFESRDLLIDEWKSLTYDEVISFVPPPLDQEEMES

Regarding `Cc1ncc(Nc2cc(COc3ccc(NC(=O)Nc4cc(C(C)(C)C)nn4-c4cccc(F)c4)c4ccccc34)ccn2)nc1C` [Example 169, 1-(3-(tert-butyl)-1-(3-fluorophenyl)-1H-pyrazol-5-yl)-3-(4-((2-((5,6-dimethylpyrazin-2-yl)amino)pyridin-4-yl)methoxy)naphthalen-1-yl)urea], the results for the IC50 in test [1] and in test [2] were 26 nM and 449 nM, respectively.
The matching figures for `COc1cccc(-n2nc(C(C)(C)C)cc2NC(=O)Nc2ccc(OCc3ccnc(Nc4cnc(C)c(C)n4)c3)c3ccccc23)c1` [Example 170, 1-(3-(tert-butyl)-1-(3-methoxyphenyl)-1H-pyrazol-5-yl)-3-(4-((2-((5,6-dimethylpyrazin-2-yl)amino)pyridin-4-yl)methoxy)naphthalen-1-yl)urea]: 35 nM and 329 nM.
Consider `Cc1ccc(-n2nc(C(C)(C)C)cc2NC(=O)Nc2ccc(OCc3ccnc(Nc4cncc(CCO)n4)c3)c3ccccc23)cc1` [Example 171, 1-(3-(tert-butyl)-1-(p-tolyl)-1H-pyrazol-5-yl)-3-(4-((2-((6-(2-hydroxyethyl)pyrazin-2-yl)amino)pyridin-4-yl)methoxy)naphthalen-1-yl)urea], for which the IC50 in test [1] amounted to 12 nM; in test [2], 49 nM.
Turning to `CCCc1cncc(Nc2cc(COc3ccc(NC(=O)Nc4cc(C(C)(C)C)nn4-c4ccc(C)cc4)c4ccccc34)ccn2)n1` [Example 172, 1-(3-(tert-butyl)-1-(p-tolyl)-1H-pyrazol-5-yl)-3-(4-((2-((6-propylpyrazin-2-yl)amino)pyridin-4-yl)methoxy)naphthalen-1-yl) urea], the values for the IC50 in test [1] and in test [2] were 31 nM and 169 nM, respectively.
Take `CCc1ccc(-n2nc(C(C)(C)C)cc2NC(=O)Nc2ccc(OCc3ccnc(Nc4cncc(CC)n4)c3)c3ccccc23)cc1` [Example 173, 1-(3-(tert-butyl)-1-(4-ethylphenyl)-1H-pyrazol-5-yl)-3-(4-((2-((6-ethylpyrazin-2-yl)amino)pyridin-4-yl)methoxy)naphthalen-1-yl) urea]: the values for the IC50 in test [1] and in test [2] were 54 nM and 571 nM, respectively.
The matching figures for `CC(C)(C)c1cc(NC(=O)Nc2ccc(OCc3ccnc(Nc4cnccn4)c3)c3ccccc23)n(-c2cccc(CO)c2)n1` [Example 174, 1-(3-(tert-butyl)-1-(3-(hydroxymethyl)phenyl)-1H-pyrazol-5-yl)-3-(4-((2-(pyrazin-2-ylamino)pyridin-4-yl)methoxy)naphthalen-1-yl)urea]: 7.7 nM and 56 nM.
In the case of `CCc1cncc(Nc2cc(COc3ccc(NC(=O)Nc4cc(C(C)(C)C)nn4-c4cccc(Cl)c4)c4ccccc34)ccn2)n1` [Example 175, 1-(3-(tert-butyl)-1-(3-chlorophenyl)-1H-pyrazol-5-yl)-3-(4-((2-((6-ethylpyrazin-2-yl)amino)pyridin-4-yl)methoxy)naphthalen-1-yl)urea], the results for the IC50 in test [1] and in test [2] were 38 nM and over 15500 nM, respectively.
For the compound `Cc1ccc(-n2nc(C(C)(C)C)cc2NC(=O)Nc2ccc(OCc3ccnc(Nc4cnc(C(=O)N5CCC(F)CC5)cn4)c3)c3ccccc23)cc1` [Example 176, 1-(3-(tert-butyl)-1-(p-tolyl)-1H-pyrazol-5-yl)-3-(4-((2-((5-(4-fluoropiperidine-1-carbonyl)pyrazin-2-yl)amino)pyridin-4-yl)methoxy)naphthalen-1-yl)urea], the IC50 in test [1] is 36 nM; in test [2], 458 nM.
The matching figures for `COc1ccc(-n2nc(C(C)(C)C)cc2NC(=O)Nc2ccc(OCc3ccnc(Nc4cnc(CO)cn4)c3)c3ccccc23)cn1` [Example 177, 1-(3-(tert-butyl)-1-(6-methoxypyridin-3-yl)-1H-pyrazol-5-yl)-3-(4-((2-((5-(hydroxymethyl)pyrazin-2-yl)amino)pyridin-4-yl)methoxy)naphthalen-1-yl) urea]: 5.2 nM and 81 nM.
The matching figures for `COc1cccc(-n2nc(C(C)(C)C)cc2NC(=O)Nc2ccc(OCc3ccnc(Nc4cnc(CO)cn4)c3)c3ccccc23)c1` [Example 178, 1-(3-(tert-butyl)-1-(3-methoxyphenyl)-1H-pyrazol-5-yl)-3-(4-((2-((5-(hydroxy-methyl)pyrazin-2-yl)amino)pyridin-4-yl)methoxy)naphthalen-1-yl)urea]: 5.8 nM and 36 nM.
The matching figures for `Cc1ncc(Nc2cc(COc3ccc(NC(=O)Nc4cc(C(C)(C)C)nn4-c4cccc(Cl)c4)c4ccccc34)ccn2)nc1C` [Example 179, 1-(3-(tert-butyl)-1-(3-chloro-phenyl)-1H-pyrazol-5-yl)-3-(4-((2-((5,6-dimethyl-pyrazin-2-yl)amino)pyridin-4-yl)methoxy)naphthalen-1-yl)urea]: 46 nM and over 15500 nM.
Take `Cc1cc(C)cc(-n2nc(C(C)(C)C)cc2NC(=O)Nc2ccc(OCc3ccnc(Nc4cnccn4)c3)c3ccccc23)c1` [Example 180, 1-(3-(tert-butyl)-1-(3,5-dimethylphenyl)-1H-pyrazol-5-yl)-3-(4-((2-(pyrazin-2-ylamino)pyridin-4-yl)methoxy)naphthalen-1-yl) urea]: the IC50 in test [1] is 19 nM; in test [2] it was 112 nM.
The matching figures for `Cc1cc(F)cc(-n2nc(C(C)(C)C)cc2NC(=O)Nc2ccc(OCc3ccnc(Nc4cnccn4)c3)c3ccccc23)c1` [Example 181, 1-(3-(tert-butyl)-1-(3-fluoro-5-methylphenyl)-1H-pyrazol-5-yl)-3-(4-((2-(pyrazin-2-ylamino)pyridin-4-yl)methoxy)naphthalen-1-yl)urea]: 15 nM and 64 nM.
The matching figures for `Cc1ccc(-n2nc(C(C)(C)C)cc2NC(=O)Nc2ccc(OCc3ccnc(Nc4cnc(C)c(C)n4)c3)c3ccccc23)cc1F` [Example 182, 1-(3-(tert-butyl)-1-(3-fluoro-4-methylphenyl)-1H-pyrazol-5-yl)-3-(4-((2-((5,6-dimethylpyrazin-2-yl)amino)pyridin-4-yl)methoxy)naphthalen-1-yl) urea]: 44 nM and 1140 nM.
The matching figures for `CCOc1ccc(-n2nc(C(C)(C)C)cc2NC(=O)Nc2ccc(OCc3ccnc(Nc4cnccn4)c3)c3ccccc23)cc1F` [Example 183, 1-(3-(tert-butyl)-1-(4-ethoxy-3-fluorophenyl)-1H-pyrazol-5-yl)-3-(4-((2-(pyrazin-2-ylamino)pyridin-4-yl)methoxy)naphthalen-1-yl) urea]: 38 nM and over 15500 nM.
For `CCOc1cccc(-n2nc(C(C)(C)C)cc2NC(=O)Nc2ccc(OCc3ccnc(Nc4cnccn4)c3)c3ccccc23)c1` [Example 184, 1-(3-(tert-butyl)-1-(3-ethoxyphenyl)-1H-pyrazol-5-yl)-3-(4-((2-(pyrazin-2-ylamino)pyridin-4-yl)methoxy)naphthalen-1-yl) urea], the values for the IC50 in test [1] and in test [2] were 19 nM and over 15900 nM, respectively.
Consider `Cc1ccc(-n2nc(C(C)(C)C)cc2NC(=O)Nc2ccc(OCc3ccnc(Nc4cnc(C(=O)N5CCC(C)CC5)cn4)c3)c3ccccc23)cc1` [Example 185, 1-(3-(tert-butyl)-1-(p-tolyl)-1H-pyrazol-5-yl)-3-(4-((2-((5-(4-methylpiperidine-1-carbonyl)pyrazin-2-yl)amino)pyridin-4-yl)methoxy)naphthalen-1-yl) urea], for which the IC50 in test [1] turned out to be 110 nM; in test [2] it was 2510 nM.
The matching figures for `COCCCNC(=O)c1cnc(Nc2cc(COc3ccc(NC(=O)Nc4cc(C(C)(C)C)nn4-c4ccc(C)cc4)c4ccccc34)ccn2)cn1` [Example 186, 5-((4-(((4-(3-(3-(tert-butyl)-1-(p-tolyl)-1H-pyrazol-5-yl)ureido)naphthalen-1-yl)oxy)methyl)pyridin-2-yl)amino)-N-(3-methoxypropyl) pyrazine-2-carboxamide]: 25 nM and over 14000 nM.
The matching figures for `CC(C)(C)c1cc(NC(=O)Nc2ccc(OCc3ccnc(Nc4cnccn4)c3)c3ccccc23)n(-c2ccc(F)cc2)n1` [Example 187, 1-(3-(tert-butyl)-1-(4-fluorophenyl)-1H-pyrazol-5-yl)-3-(4-((2-(pyrazin-2-ylamino)pyridin-4-yl)methoxy)naphthalen-1-yl) urea]: 16 nM and 180 nM.
The matching figures for `COCCCc1cnc(Nc2cc(COc3ccc(NC(=O)Nc4cc(C(C)(C)C)nn4-c4ccc(C)cc4)c4ccccc34)ccn2)cn1` [Example 188, 1-(3-(tert-butyl)-1-(p-tolyl)-1H-pyrazol-5-yl)-3-(4-((2-((5-(3-methoxypropyl)pyrazin-2-yl)amino)pyridin-4-yl)methoxy)naphthalen-1-yl)urea]: 32 nM and 442 nM.
Regarding `CCCc1cncc(Nc2cc(COc3ccc(NC(=O)Nc4cc(C(C)(C)C)nn4-c4cccc(OC)c4)c4ccccc34)ccn2)n1` [Example 189, 1-(3-(tert-butyl)-1-(3-methoxyphenyl)-1H-pyrazol-5-yl)-3-(4-((2-((6-propyl-pyrazin-2-yl)amino)pyridin-4-yl)methoxy)naphthalen-1-yl)urea], the IC50 in test [1] is 72 nM; in test [2], 579 nM.
